Measurements published in patent US7192981B2, “3,4-dihydroxyhydrocinnamic acid derivative” (Bionutrigen Co., Ltd., priority 2005, dated 2007).

Tests used:
[1] = tested on: STZ-induced diabetic C57BL/6 mice; assay: Blood glucose and glucose tolerance test in STZ-induced diabetic mice; assay type: in vivo, mouse; conditions: 150 mg/kg i.p. daily, at 2 weeks after treatment
From the text: Male C57BL/6 and C57BL/6 ob/ob mice were purchased from The Jackson Laboratory (Bar Harbor, Me.), and Sprague-Dawley (SD) rats were purchased from Charles River Laboratories (Wilmington, Mass.). The animals were maintained and bred under specific pathogen-free conditions and provided with sterile food and water ad libitum at the Animal Resources Centre, Faculty of Medicine, University of Calgary. The use and care of the animals used in this study were approved by the Animal Care Committee, Faculty of Medicine, University of Calgary.
(§1) DHH105 was dissolved in DMSO and emulsified in olive oil (1:50 v/v). DHH105, at a dose of 150 mg/kg body weight (b.w.) in 100 μl, was injected intraperitoneally (i.p.) every day into diabetic ob/ob mice (blood glucose level>230 mg/dl) and STZ-treated diabetic C57BL/6 mice (blood glucose level>300 mg/dl). Control mice received the same amount of olive oil without DHH105. Blood glucose levels were measured with a glucometer (One Touch Ultra, Lifescan, Milpitas, Calif.) every morning between 9:00–10:00 a.m. just before injection of DHH105.
To determine whether treatment with DHH105 can decrease the blood glucose level in STZ-induced diabetic C57BL/6 mice (blood glucose levels>300 mg/dl), mice were treated with DHH105 (150 mg/kd) daily for 2 weeks. […] Blood glucose levels were measured at 0, 15, 30, 60, and 120 min after glucose injection.

[2] = target: T1, insulin receptor (Rattus norvegicus, UniProt P15127); assay: Insulin binding assay ([125I]-insulin binding to adipocytes); conditions: [125I]-insulin 0.1 ng/ml, 2 h
T1 construct: endogenous in cells; host or cells: isolated primary adipocytes (rat)
Method: To examine whether DHH105 binds to the insulin receptor and activates the insulin signal transduction pathway, [^125I]-insulin binding to adipocytes was measured in the presence of DHH105. Isolated adipocytes were incubated in KRH buffer for 1 h to remove residual insulin. Adipocytes were then washed three times and resuspended in KRH buffer. Adipocytes (2×10^5 cells/vial) were incubated with DHH105 or insulin in the presence of [^125I]-insulin (0.1 ng/ml; Perkin-Elmer Life and Analytical Sciences, Downers Grove, Ill.) for 2 h at 16° C. in a shaking bath. To measure non-specific binding, 50 μg of unlabelled insulin (Sigma) were added to cells along with [^125I]-insulin. After incubation, adipocytes were harvested by silicon oil and the radioactivity was measured.

[3] = Body weight and gross liver observation in DHH105-treated mice; assay type: in vivo, mouse
Method: as §1, with “First, the effect of DHH105 on the non-fasting blood glucose level in ob/ob mice, an animal model of type 2 diabetes, was examined in vivo. […] DHH105 was” for “DHH105 was”

[4] = tested on: IRS-1; assay: Phosphorylation of IRS-1 in adipocytes, immunoprecipitation and western blot; assay type: cell-based; conditions: SD rat adipocytes, DHH105 2 h, vs untreated control
Method: Adipocytes treated with DHH105 for 2 h or insulin for 10 min were homogenized in 5 ml lysis buffer (20 mM Tris, pH 7.4, 1% SDS, 10% glycerol, 150 mM NaCl, 2 mM EDTA, 20 mM NaF, 1 mM NaVO4, 2 mM sodium pyrophosphate, protease inhibitor cocktail, and phosphatase inhibitor cocktail) with a teflon pestle (15 strokes). Homogenized adipocytes were sonicated for 3 min and solubilized for 30 min. The homogenate was centrifuged at 3,000 g for 10 min at 4° C. The protein concentration of the lysate was determined by the Bradford method. After dilution (1 μg/μl protein concentration), the lysates were incubated with anti-insulin receptor-β (IR-β) antibody (Upstate Biotech, Charlottesville, Va.) or anti-IRS-1 antibody (Upstate Biotech) overnight at 4° C. Protein A Sepharose beads (100 μl, Amersham Pharmacia Biotech) were added and the mixture was gently rocked for 2 h at 4° C. […] The membranes were washed and the immunoreactive proteins were detected with an enhanced chemoluminescence western blot detection kit (Amersham Pharmacia Biotech). To examine whether DHH105 treatment increases autophosphorylation of the insulin receptor and its tyrosine kinase activity, the phosphorylation of IR-β and IRS-1 were measured by immunoprecipitation and western blot in DHH105-treated adipocytes from SD rats. […]

T1 sequence (P15127 27-759 limits assumed): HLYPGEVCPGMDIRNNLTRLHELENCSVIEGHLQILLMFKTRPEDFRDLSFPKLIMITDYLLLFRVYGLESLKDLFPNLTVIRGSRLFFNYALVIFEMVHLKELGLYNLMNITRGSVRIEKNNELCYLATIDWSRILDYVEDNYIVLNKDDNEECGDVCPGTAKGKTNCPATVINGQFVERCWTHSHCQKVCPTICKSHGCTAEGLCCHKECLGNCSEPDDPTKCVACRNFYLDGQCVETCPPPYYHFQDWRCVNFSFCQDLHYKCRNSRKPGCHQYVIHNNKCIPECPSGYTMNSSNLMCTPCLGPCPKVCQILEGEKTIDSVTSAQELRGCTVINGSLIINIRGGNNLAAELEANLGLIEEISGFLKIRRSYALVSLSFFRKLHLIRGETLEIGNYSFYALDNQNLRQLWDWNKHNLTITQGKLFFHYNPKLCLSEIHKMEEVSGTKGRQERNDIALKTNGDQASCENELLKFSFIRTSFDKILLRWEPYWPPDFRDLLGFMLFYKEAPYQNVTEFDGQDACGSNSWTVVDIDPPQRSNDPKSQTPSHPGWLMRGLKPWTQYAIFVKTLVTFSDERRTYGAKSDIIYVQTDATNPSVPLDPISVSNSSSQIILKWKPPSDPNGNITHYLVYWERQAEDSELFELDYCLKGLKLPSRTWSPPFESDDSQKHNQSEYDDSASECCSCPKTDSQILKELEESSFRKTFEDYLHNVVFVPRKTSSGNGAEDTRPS
T1 sequence (P15127 764-1383 partner limits assumed): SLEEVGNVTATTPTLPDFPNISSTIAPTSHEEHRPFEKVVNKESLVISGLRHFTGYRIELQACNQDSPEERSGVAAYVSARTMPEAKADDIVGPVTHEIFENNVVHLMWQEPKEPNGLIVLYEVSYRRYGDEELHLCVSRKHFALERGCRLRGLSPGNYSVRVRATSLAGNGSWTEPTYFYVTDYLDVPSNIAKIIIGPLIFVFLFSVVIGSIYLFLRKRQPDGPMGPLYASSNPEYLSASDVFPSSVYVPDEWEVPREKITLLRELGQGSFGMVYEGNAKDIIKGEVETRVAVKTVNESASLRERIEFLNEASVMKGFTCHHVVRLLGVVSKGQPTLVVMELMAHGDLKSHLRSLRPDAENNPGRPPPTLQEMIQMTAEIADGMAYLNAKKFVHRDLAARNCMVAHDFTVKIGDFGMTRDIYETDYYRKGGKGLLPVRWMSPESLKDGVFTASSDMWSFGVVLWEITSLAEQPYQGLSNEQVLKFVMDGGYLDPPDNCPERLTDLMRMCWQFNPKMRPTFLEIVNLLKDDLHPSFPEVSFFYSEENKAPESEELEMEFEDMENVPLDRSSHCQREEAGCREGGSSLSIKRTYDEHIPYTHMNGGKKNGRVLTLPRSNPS

## O=C(CCc1ccc(O)c(O)c1)OCc1cccc2ccccc12 [DHH105, 3,4-dihydroxyhydrocinnamic acid naphthalene methyl ester]
[1]
  blood glucose levels: significantly decreased
[2]; 500 μM DHH105 plus insulin
  binding of [125I]-insulin to adipocytes, DHH105 together with insulin: further inhibited
[2]; 16° C.
  binding of [125I]-insulin to adipocytes: inhibited
[3]; DHH105-treated mice
  gross lesions of the liver: no gross lesions
[3]; DHH105-treated vs untreated mice
  body weight, treated vs untreated mice: no differences
[4]
  phosphorylation of IRS-1: increased
